# Values joined by “and” are separate entries in the source; they are usually repeats but may differ in a detail not shown here. Equal entries are not always repeated.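 Results reflect a 48-hour exposure of cells in 96-well plates to compound at five concentrations. Abbreviation: GI50, concentration required for 50% inhibition of growth. TGI marks complete inhibition of growth.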
# Key:
# Assay in all cases: NCI tumour cell line growth inhibition, 48 h
# [1] = system: IGROV1 ovarian
# [2] = system: A498 renal
# [3] = system: 786-0 renal
# [4] = system: K-562 leukemia
# [5] = system: HOP-62 NSCLC
# [6] = system: NCI-H23 lung
# [7] = system: KM12 colon
# [8] = system: U251 CNS
# [9] = system: HT29 colon
# [10] = system: RPMI-8226 leukemia
# [11] = system: TK-10 renal
# [12] = system: OVCAR-3 ovarian
# [13] = system: HCC-2998 colon
# [14] = system: UACC-62 melanoma
# [15] = system: HL-60(TB) leukemia
# [16] = system: DU-145 prostate
# [17] = system: T-47D breast
# [18] = system: MDA-MB-435
# [19] = system: ACHN renal
# [20] = system: MOLT-4 leukemia
# [21] = system: NCI-H226 lung
# [22] = system: SNB-19 CNS
# [23] = system: SF-268 CNS
# [24] = system: OVCAR-5 ovarian
# [25] = system: PC-3 prostate
# [26] = system: EKVX NSCLC
# [27] = system: SK-MEL-5 melanoma
# [28] = system: SW-620 colon
# [29] = system: NCI-H522 lung
# [30] = system: HS 578T breast
# [31] = system: NCI-H460 lung
# [32] = system: RXF 393 renal
# [33] = system: CAKI-1 renal
# [34] = system: A549 NSCLC
# [35] = system: MDA-MB-231 breast
# [36] = system: HCT-15 colon
# [37] = system: SNB-75 CNS
# [38] = system: SF-295 CNS
# [39] = system: UO-31 renal
# [40] = system: SK-MEL-2 melanoma
# [41] = system: MCF7 breast
# [42] = system: M14 melanoma
# [43] = system: BT-549 breast
# [44] = system: SR leukemia
# [45] = system: MDA-N
# [46] = system: MALME-3M melanoma
# [47] = system: LOX IMVI melanoma
# [48] = system: SF-539 CNS
# [49] = system: OVCAR-8 ovarian
# [50] = system: OVCAR-4 ovarian
# [51] = system: UACC-257 melanoma
# [52] = system: SN12C renal
# [53] = system: SK-MEL-28 melanoma
# [54] = system: SK-OV-3 ovarian
# [55] = system: CCRF-CEM leukemia
# [56] = system: HOP-92 NSCLC
# [57] = system: HCT-116 colon
# [58] = system: NCI/ADR-RES ovarian
# [59] = system: COLO 205 colon
structure (smiles),measurement,setting,value
C=C1C(C(O)C[C@H](C)C2O[C@@]3(CCCCO3)CCC2C)O[C@@H]2CCC3(CCC(/C=C/[C@@H](C)C4CC(C)=CC5(O4)O[C@H](C[C@](C)(O)C(=O)O)CCC5O)O3)OC2[C@@H]1O (stereo not given in full),GI50,[1],32.2 nM
same,TGI,[1],137 nM and 64.1 nM
same,GI50,[2],31.5 nM
same,GI50,[3],10.8 nM
same,TGI,[3],27.2 nM and 34.3 nM
same,TGI,[4],163 nM and 303 nM
same,GI50,[5],7.4 nM and 3.98 nM
same,TGI,[5],25.5 nM and 10.9 nM
same,TGI,[6],32.3 nM
same,GI50,[7],6.28 nM
same,GI50,[8],8.08 nM
same,GI50,[9],21 nM
same,TGI,[9],56.1 nM and 39.6 nM
same,GI50,[10],4.22 nM
same,TGI,[10],31.4 nM and 17.3 nM
same,GI50,[11],67 nM
same,TGI,[11],202 nM and 36.2 nM
same,GI50,[12],12.1 nM
same,TGI,[12],31.6 nM and 9.27 nM
same,TGI,[13],9.25 nM
same,GI50,[14],4.29 nM
same,TGI,[14],16.1 nM and 8.61 nM
same,GI50,[15],1.62 nM
same,TGI,[15],7.8 nM and 16 nM
same,GI50,[16],23.1 nM
same,TGI,[16],137 nM and 37.7 nM
same,GI50,[17],13.1 nM
same,TGI,[17],185 nM and 64.1 nM
same,GI50,[18],7.36 nM
same,GI50,[19],25.9 nM
same,TGI,[19],101 nM and 61.8 nM
same,GI50,[20],24.1 nM
same,TGI,[20],61.5 nM and 53.5 nM
same,TGI,[21],8.28 nM
same,GI50,[22],4.86 nM
same,TGI,[22],15.8 nM and 15.1 nM
same,TGI,[23],8.56 nM
same,GI50,[24],7.06 nM
same,TGI,[24],23.9 nM and 27.5 nM
same,GI50,[25],12.6 nM
same,TGI,[25],35.2 nM and 19.1 nM
same,GI50,[26],19.2 nM
same,TGI,[26],124 nM and 17.4 nM
same,TGI,[27],15.5 nM and 7.96 nM
same,GI50,[28],23.1 nM
same,TGI,[28],252 nM and 102 nM
same,GI50,[29],6.29 nM
same,TGI,[29],28.8 nM and 5.39 nM
same,GI50,[30],2.65 nM
same,TGI,[30],27.1 nM and 19 nM
same,GI50,[31],6.31 nM
same,TGI,[31],33.2 nM and 43.7 nM
same,GI50,[32],0.277 nM
same,GI50,[33],16.8 nM
same,TGI,[33],52.3 nM and 40.9 nM
same,GI50,[34],47.7 nM
same,TGI,[34],255 nM and 258 nM
same,GI50,[35],11.7 nM
same,GI50,[36],46.1 nM
same,TGI,[36],203 nM and 55 nM
same,GI50,[37],4.7 nM
same,TGI,[37],39.5 nM and 4.2 nM
same,GI50,[38],7.48 nM
same,TGI,[38],86.7 nM and 25.9 nM
same,GI50,[39],96 nM
same,TGI,[39],238 nM and 101 nM
same,GI50,[40],3.53 nM
same,TGI,[40],11.2 nM and 8.49 nM
same,GI50,[41],19.9 nM
same,TGI,[41],44.1 nM and 20.7 nM
same,GI50,[42],2.77 nM
same,TGI,[42],9.85 nM and 6.27 nM
same,GI50,[43],3.37 nM
same,TGI,[43],11.5 nM and 27.6 nM
same,GI50,[44],54.1 nM
same,GI50,[45],5.35 nM
same,GI50,[46],9.97 nM
same,GI50,[47],5.88 nM
same,GI50,[48],4.56 nM
same,TGI,[48],17.5 nM and 9.41 nM
same,GI50,[49],26.5 nM
same,GI50,[50],23.1 nM
same,TGI,[50],89.8 nM and 62.7 nM
same,GI50,[51],13.7 nM
same,TGI,[51],34.2 nM and 23.3 nM
same,GI50,[52],20.2 nM
same,GI50,[53],4.33 nM
same,TGI,[53],15.1 nM and 6.35 nM
same,GI50,[54],10.6 nM
same,TGI,[54],42.1 nM and 34.8 nM
same,GI50,[55],5.78 nM
same,TGI,[55],40.9 nM and 93.1 nM
same,GI50,[56],13 nM
same,TGI,[56],38.6 nM and 9.11 nM
same,GI50,[57],5.57 nM
same,GI50,[58],111 nM
same,TGI,[58],> 1000 nM and 778 nM
CCNC(=O)OCC1C2=C(C(=O)C(C)=C(N)C2=O)N2CC3C(N3C)C12OC (stereo not given),TGI,[1],77000 nM
same,TGI,[2],77000 nM
same,TGI,[3],> 83000 nM
same,TGI,[4],> 100000 nM
same,TGI,[5],> 100000 nM
same,TGI,[59],> 100000 nM
same,TGI,[6],14200 nM
same,TGI,[8],> 100000 nM
same,TGI,[9],> 100000 nM
same,TGI,[10],> 100000 nM
same,TGI,[11],> 100000 nM
same,TGI,[12],> 86200 nM
same,TGI,[13],35300 nM
same,TGI,[14],33400 nM
same,TGI,[15],> 44100 nM
same,TGI,[16],> 100000 nM
same,TGI,[17],> 100000 nM
same,TGI,[18],> 100000 nM
same,TGI,[19],> 61900 nM
same,TGI,[20],> 76300 nM
same,TGI,[21],> 100000 nM
same,TGI,[22],> 100000 nM
same,TGI,[23],> 100000 nM
same,TGI,[24],> 100000 nM
same,TGI,[25],> 100000 nM
same,TGI,[26],> 100000 nM
same,TGI,[27],29500 nM
same,TGI,[28],32000 nM
same,TGI,[29],34500 nM
same,TGI,[30],> 100000 nM
same,TGI,[31],12100 nM
same,TGI,[32],> 100000 nM
same,TGI,[33],> 100000 nM
same,TGI,[34],> 100000 nM
same,TGI,[35],> 100000 nM
same,TGI,[36],50700 nM
same,TGI,[37],> 100000 nM
same,TGI,[38],> 100000 nM
same,TGI,[39],64300 nM
same,TGI,[40],71200 nM
same,TGI,[41],> 100000 nM
same,TGI,[42],> 100000 nM
same,TGI,[43],99100 nM
same,TGI,[44],> 32600 nM
same,TGI,[45],> 100000 nM
same,TGI,[46],41800 nM
same,TGI,[47],> 68700 nM
same,TGI,[48],> 85100 nM
same,TGI,[49],> 100000 nM
same,TGI,[50],> 79000 nM
same,TGI,[51],> 100000 nM
same,TGI,[52],> 100000 nM
same,TGI,[53],> 100000 nM
same,TGI,[54],> 100000 nM
same,TGI,[55],> 100000 nM
same,TGI,[56],> 100000 nM
same,TGI,[57],> 63500 nM
same,TGI,[58],> 100000 nM

# From PubChem BioAssay (NCI)
